In PMC11372264, “^61Cu-PSMA–Targeted PET for Prostate Cancer: From Radiotracer Development to First-in-Human Imaging” (Journal of Nuclear Medicine, 2024):

Legend:
[1] = Lipophilicity: distribution coefficient in 1:1 1-octanol/phosphate-buffered saline at pH 7.4; type: physicochemical
Description: (§1) The lipophilicity of [^61Cu]Cu-DOTAGA-PSMA-I&T and [^61Cu]Cu-NODAGA-PSMA-I&T was assessed by determining the distribution coefficient in a 1:1 mixture of 1-octanol–to–phosphate-buffered saline at pH 7.4, in comparison with all reference radiotracers. Inhibitory concentration of 50% (IC50) was assessed by competition binding on lymph node carcinoma of the prostate (LNCaP) using ((S)-1-carboxy-5-(4-(-^125I-iodo-benzamido)pentyl)carbamoyl)-L-glutamic acid as the reference radioligand. Cellular uptake and distribution were assessed in LNCaP cells at 5, 15, 30, 60, and 120 min after exposure to the radioligand at 37°C, either alone or in the presence of 10 µM 2-(phosphonomethyl)pentanedioic acid to distinguish between specific and nonspecific uptake.

[2] = Stability of radiotracer at room temperature (radiochemical purity over time); type: physicochemical; conditions: 24 MBq/nmol, 4 h
Description: [^61Cu]Cu-DOTAGA-PSMA-I&T and [^61Cu]Cu-NODAGA-PSMA-I&T were synthesized with radiolabeling yield of more than 98% and radiochemical purity of more than 97% (radio–high-performance liquid chromatography analysis) at an apparent molar activity of 24 MBq/nmol. Thus, no purification was required after labeling. Although [^61Cu]Cu-DOTAGA-PSMA-I&T needed elevated temperature (95°C) and 15 min of reaction time, [^61Cu]Cu-NODAGA-PSMA-I&T was synthesized at room temperature within 5 min. After 4 h at room temperature, the radiochemical purity of [^61Cu]Cu-DOTAGA-PSMA-I&T dropped to approximately 90%, whereas it remained stable (∼97%) for [^61Cu]Cu-NODAGA-PSMA-I&T. All analytic data and quality control results are provided in Supplemental Figures 1 and 2 and in Supplemental Tables 1 and 2.
With inexpensive ^natNi as the starting material, highly pure ^61Cu could be produced with radionuclidic purity exceeding 99.99% at 12 h after synthesis (details on the production will be published elsewhere). The preparation of [^61Cu]Cu-NODAGA-PSMA-I&T was performed in widely used buffers at room temperature within 5 min. […] High labeling yields and suitable molar activities for clinical use eliminate the need for any purification step after labeling. […]

[3] = In vivo metabolic stability (radio-HPLC of urine, liver and kidney homogenates); set-up: species or system BALB/c mice; conditions: 1 h after injection
Description: The stability of [^61Cu]Cu-DOTAGA-PSMA-I&T and [^61Cu]Cu-NODAGA-PSMA-I&T was assessed by radio–reversed-phase high-performance liquid chromatography in urine and in liver and kidney homogenates from healthy BALB/c mice after injection of 100 µL/400 pmol/8–9 MBq of each radiotracer. Details are provided in the supplemental materials.

[4] = tested on: LNCaP xenografts; test: Biodistribution in LNCaP xenografts; type: in vivo, mice
Description: All animal experiments were conducted in accordance with Swiss animal welfare laws and regulations under license number 30515 granted by the Veterinary Office, Department of Health, Canton Basel-Stadt, Switzerland. Male athymic nude-Foxn1^nu/Foxn1^+ mice (Envigo), 4–6 wk old, were inoculated subcutaneously on the shoulder with 10^7 LNCaP cells, freshly suspended in a 1:1 ratio of sterile minimum essential medium with basal medium Eagle and Matrigel. The tumors were allowed to grow to a volume of approximately 200 mm^3.
The biodistribution of [^61Cu]Cu-DOTAGA-PSMA-I&T and [^61Cu]Cu-NODAGA-PSMA-I&T (100 µL/200 pmol/2–3 MBq) was compared with that of [^68Ga]Ga-DOTAGA-PSMA-I&T, [^68Ga]Ga-NODAGA-PSMA-I&T, and [^68Ga]Ga-PSMA-11 (100 µL/200 pmol/3–5 MBq), as well as [^18F]PSMA-1007 (100 µL/70 pmol/15 MBq). This comparison was conducted at 1 h after injection for all radiotracers and at 4 h after injection for the ^61Cu-labeled tracers and [^18F]PSMA-1007. The specificity of the ^61Cu-labeled tracers was assessed at 1 h after injection by blocking studies with 2-(phosphonomethyl)pentanedioic acid (100 µL/1.3 µmol) being injected 3–5 min before the injection of the radiotracer.

[5] = tested on: LNCaP cells; test: Cellular uptake and distribution (surface-bound, internalized) in LNCaP cells; type: cell-based; conditions: 1 h, 37°C
Description: as §1
FIGURE 1. In vitro assessment in LNCaP cells after 1 h at 37°C. (A) Competition binding activity curves of ^natCu-DOTAGA-PSMA-I&T, ^natCu-NODAGA-PSMA-I&T, and ^natGa-PSMA-11 on LNCaP cells after 1 h of incubation on ice, using ((S)-1-carboxy-5-(4-(-^125I-iodo-benzamido)pentyl)carbamoyl)-L-glutamic acid ([^125I-BA]KuE) at concentration of 0.2 nM as reference radioligand. (B) Cellular uptake (surface-bound + internalized). Cell surface–bound and internalized fractions are indicated. Results represent mean ± SD of specific (total − nonspecific) uptake from minimum of 2 separate experiments, each in triplicate.

[6] = 1 h after injection, blocking with 2-(phosphonomethyl)pentanedioic acid 1.3 µmol

With `O=C([O-])CN1CCN(CC(=O)O)CCN(CC(=O)[O-])CCN(C(CCC(=O)N[C@H](Cc2ccc(O)c(I)c2)C(=O)N[C@H](Cc2ccccc2)C(=O)N[C@H](CCCCNC(=O)CCCCCCC(=O)NCCCC[C@H](NC(=O)N[C@@H](CCC(=O)O)C(=O)O)C(=O)O)C(=O)O)C(=O)O)CC1.[61Cu+2]` (stereo partly drawn) [[^61Cu]Cu-DOTAGA-PSMA-I&T, DOTAGA-(l-y)fk(sub-KuE)] the logDpH7.4 [1] was −2.69 ± 0.44, the “Radiochemical purity after 4 h at room temperature” value [2] was “approximately 90%” and the “Release of ^61Cu in the liver” value [3] was “approximately 70%”. For the same compound, the “Biodistribution, Adrenals” value ([4]; 1 h after injection) was 9.35 ± 1.50 %IA/g, the “Biodistribution, Blood” value ([4]; 1 h after injection) was 2.06 ± 0.24 %IA/g and the “Biodistribution, Femur” value ([4]; 1 h after injection) was 2.31 ± 0.36 %IA/g. For the same compound, the “Biodistribution, Heart” value ([4]; 1 h after injection) was 3.73 ± 0.32 %IA/g, the “Biodistribution, Intestine” value ([4]; 1 h after injection) was 8.95 ± 0.62 %IA/g and the “Biodistribution, Kidneys” value ([4]; 1 h after injection) was 57.1 ± 6.3 %IA/g. The “Biodistribution, Liver” value ([4]; 1 h after injection) was 19.3 ± 3.3 %IA/g, the “Biodistribution, Lung” value ([4]; 1 h after injection) was 6.35 ± 0.35 %IA/g and the “Biodistribution, Muscles” value ([4]; 1 h after injection) was 1.00 ± 0.05 %IA/g. The “Biodistribution, Pancreas” value ([4]; 1 h after injection) was 2.82 ± 0.67 %IA/g, the “Biodistribution, Salivary glands” value ([4]; 1 h after injection) was 5.60 ± 1.39 %IA/g and the “Biodistribution, Spleen” value ([4]; 1 h after injection) was 4.64 ± 1.35 %IA/g. The “Biodistribution, Stomach” value ([4]; 1 h after injection) was 7.77 ± 0.62 %IA/g, the “Biodistribution, Tumor (tumor uptake)” value ([4]; 1 h after injection) was 6.06 ± 0.25 %IA/g and the Tumor-to-Adrenals ratio ([4]; 1 h after injection) was 0.66 ± 0.13. The Tumor-to-Blood ratio ([4]; 1 h after injection) was 2.97 ± 0.23, the Tumor-to-Intestine ratio ([4]; 1 h after injection) was 0.68 ± 0.07 and the Tumor-to-Kidneys ratio ([4]; 1 h after injection) was 0.11 ± 0.01. For the same compound, the Tumor-to-Liver ratio ([4]; 1 h after injection) was 0.32 ± 0.05, the Tumor-to-Muscles ratio ([4]; 1 h after injection) was 6.08 ± 0.22 and the Tumor-to-Salivary glands ratio ([4]; 1 h after injection) was 1.14 ± 0.34. For the same compound, the Tumor-to-Spleen ratio ([4]; 1 h after injection) was 1.37 ± 0.29, the “Biodistribution, Adrenals” value [4, 6] was 3.25 ± 0.92 %IA/g and the “Biodistribution, Blood” value [4, 6] was 1.36 ± 0.15 %IA/g. For the same compound, the “Biodistribution, Femur” value [4, 6] was 1.50 ± 0.21 %IA/g, the “Biodistribution, Heart” value [4, 6] was 2.34 ± 0.11 %IA/g and the “Biodistribution, Intestine” value [4, 6] was 8.78 ± 2.18 %IA/g. The “Biodistribution, Kidneys” value [4, 6] was 8.76 ± 1.57 %IA/g, the “Biodistribution, Liver” value [4, 6] was 14.3 ± 1.7 %IA/g and the “Biodistribution, Lung” value [4, 6] was 5.62 ± 1.61 %IA/g. For the same compound, the “Biodistribution, Muscles” value [4, 6] was 0.63 ± 0.10 %IA/g, the “Biodistribution, Pancreas” value [4, 6] was 1.89 ± 0.34 %IA/g and the “Biodistribution, Salivary glands” value [4, 6] was 3.25 ± 0.94 %IA/g. For the same compound, the “Biodistribution, Spleen” value [4, 6] was 2.46 ± 0.47 %IA/g, the “Biodistribution, Stomach” value [4, 6] was 7.52 ± 1.58 %IA/g and the “Biodistribution, Tumor” value [4, 6] was 3.31 ± 0.26 %IA/g. For the same compound, the “Biodistribution, Adrenals” value ([4]; 4 h after injection) was 6.46 ± 2.38 %IA/g, the “Biodistribution, Blood” value ([4]; 4 h after injection) was 1.12 ± 0.24 %IA/g and the “Biodistribution, Femur” value ([4]; 4 h after injection) was 1.69 ± 0.25 %IA/g. The “Biodistribution, Heart” value ([4]; 4 h after injection) was 2.08 ± 0.33 %IA/g, the “Biodistribution, Intestine” value ([4]; 4 h after injection) was 7.74 ± 1.76 %IA/g and the “Biodistribution, Kidneys” value ([4]; 4 h after injection) was 22.1 ± 2.2 %IA/g. For the same compound, the “Biodistribution, Liver” value ([4]; 4 h after injection) was 13.9 ± 2.2 %IA/g, the “Biodistribution, Lung” value ([4]; 4 h after injection) was 4.67 ± 0.76 %IA/g and the “Biodistribution, Muscles” value ([4]; 4 h after injection) was 0.48 ± 0.08 %IA/g. For the same compound, the “Biodistribution, Pancreas” value ([4]; 4 h after injection) was 1.71 ± 0.23 %IA/g, the “Biodistribution, Salivary glands” value ([4]; 4 h after injection) was 2.31 ± 0.19 %IA/g and the “Biodistribution, Spleen” value ([4]; 4 h after injection) was 2.95 ± 0.73 %IA/g. The “Biodistribution, Stomach” value ([4]; 4 h after injection) was 7.10 ± 0.97 %IA/g, the “Biodistribution, Tumor (tumor uptake)” value ([4]; 4 h after injection) was 4.88 ± 0.63 %IA/g and the Tumor-to-Adrenals ratio ([4]; 4 h after injection) was 0.81 ± 0.22. It also gave a Tumor-to-Blood ratio ([4]; 4 h after injection) of 4.56 ± 1.49, a Tumor-to-Intestine ratio ([4]; 4 h after injection) of 0.66 ± 0.23 and a Tumor-to-Kidneys ratio ([4]; 4 h after injection) of 0.22 ± 0.04. It also gave a Tumor-to-Liver ratio ([4]; 4 h after injection) of 0.35 ± 0.05, a Tumor-to-Muscles ratio ([4]; 4 h after injection) of 10.5 ± 2.8 and a Tumor-to-Salivary glands ratio ([4]; 4 h after injection) of 2.13 ± 0.43. The Tumor-to-Spleen ratio ([4]; 4 h after injection) was 1.73 ± 0.46, the “Blood values and background activity, fold higher than [^61Cu]Cu-NODAGA-PSMA-I&T” value ([4]; LNCaP xenografts) was “approximately 10 fold” and the “Cellular uptake (surface-bound + internalized)” value ([5]; specific uptake) was 26.6% ± 1.3%. The Internalized fraction ([5]; % of applied activity) was 13.3 ± 0.5% and the Surface-bound fraction ([5]; % of applied activity) was 13.4 ± 0.8%.
